Measured values from US5602153A, “Method of using 1-arylheteroarylalkyl substituted-1H-1,2,4-triazole compounds for treatment of a giaucoma disorder” (G.D. Searle & Co., priority 1993, dated 1997).
Read-outs that look alike come from different tables or passages of the source.

Assays:
pressor response to AII = experiment: Assay D: In Vivo Intragastric Pressor Assay Response for AII Antagonists of Examples #1 and #3; parameters: species or system rat (male Sprague-Dawley); settings: 3 mg/kg gavage
Procedure: Assay D: In Vivo Intragastric Pressor Assay Response for AII Antagonists of Examples #1 and #3
Male Sprague-Dawley rats weighing 225-300 grams were anesthetized with methohexital (30 mg/kg, i.p.) and catheters were implanted into the femoral artery and vein. The catheters were tunneled subcutaneously to exit dorsally, posterior to the head and between the scapulae. The catheters were filled with heparin (1000 units/ml of saline). The rats were returned to their cage and allowed regular rat chow and water ad libitum. After full recovery from surgery (3-4 days), rats were placed in Lucite holders and the arterial line was connected to a pressure transducer. Arterial pressure was recorded on a Gould polygraph (mmHg). Angiotensin II was administered as a 30 ng/kg bolus via the venous catheter delivered in a 50 μl volume with a 0.2 ml saline flush. The pressor response in mm Hg was measured by the difference from pre-injection arterial pressure to the maximum pressure achieved. The AII injection was repeated every 10 minutes until three consecutive injections yielded responses within 4 mmHg of each other. These three responses were then averaged and represented the control response to AII. The test compound was suspended in 0.5% methylcellulose in water and was administered by gavage. The volume administered was 2 ml/kg body weight. The standard dose was 3 mg/kg. […] The pressor response to AII was measured at each time point. The rats were then returned to their cage for future testing. A minimum of 3 days was allowed between tests. Percent inhibition was calculated for each time point following gavage by the following formula: [(Control Response-Response at time point)/Control Response]×100.

rabbit aortic rings = target: T1, rabbit aortic rings (Oryctolagus cuniculus, UniProt P34976); experiment: Assay B: In Vitro Vascular Smooth Muscle-Response for AII (antagonist activity in rabbit aortic rings); type: cell-based, rabbit (male New Zealand white); settings: antagonist 10^-5 M for 5 min, AII challenge
T1 construct: The thoracic aorta was removed, cleaned of adherent fat and connective tissue; from tissue; host or cells: thoracic aorta rings, endothelium removed, male New Zealand white rabbit
T1 sequence (P34976 1-359): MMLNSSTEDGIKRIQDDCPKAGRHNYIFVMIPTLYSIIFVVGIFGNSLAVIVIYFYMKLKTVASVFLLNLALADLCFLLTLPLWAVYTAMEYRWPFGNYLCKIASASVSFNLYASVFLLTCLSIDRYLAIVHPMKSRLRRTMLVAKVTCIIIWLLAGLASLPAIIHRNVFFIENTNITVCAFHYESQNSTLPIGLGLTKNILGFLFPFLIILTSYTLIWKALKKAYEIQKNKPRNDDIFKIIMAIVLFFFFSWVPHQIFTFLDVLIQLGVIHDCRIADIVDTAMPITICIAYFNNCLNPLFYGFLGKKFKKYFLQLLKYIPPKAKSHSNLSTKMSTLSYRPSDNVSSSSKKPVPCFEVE

CCCCc1nc(CCCC)n(Cc2ccc(-c3ccccc3-c3nnn[nH]3)cn2)n1 [Example 1, 5-[2-[6-[(3,5-dibutyl-1H-1,2,4-triazol-1-yl)methyl]-3-pyridinyl]phenyl]-1H-tetrazole]
% Inhibition of Blood Pressure Elevation (pressor response to AII; Rat A, 0 min): 0% | % Inhibition of Blood Pressure Elevation (pressor response to AII; Rat A, 30 min): 14% | % Inhibition of Blood Pressure Elevation (pressor response to AII; Rat A, 45 min): 20% | % Inhibition of Blood Pressure Elevation (pressor response to AII; Rat A, 60 min): 40% | % Inhibition of Blood Pressure Elevation (pressor response to AII; Rat A, 75 min): 33% | % Inhibition of Blood Pressure Elevation (pressor response to AII; Rat A, 90 min): 37% | % Inhibition of Blood Pressure Elevation (pressor response to AII; Rat A, 120 min): 37% | % Inhibition of Blood Pressure Elevation (pressor response to AII; Rat A, 150 min): 40% | % Inhibition of Blood Pressure Elevation (pressor response to AII; Rat A, 180 min): 33% | % Inhibition of Blood Pressure Elevation (pressor response to AII; Rat B, 0 min): 0% | % Inhibition of Blood Pressure Elevation (pressor response to AII; Rat B, 30 min): 11% | % Inhibition of Blood Pressure Elevation (pressor response to AII; Rat B, 45 min): 15% | % Inhibition of Blood Pressure Elevation (pressor response to AII; Rat B, 60 min): 26% | % Inhibition of Blood Pressure Elevation (pressor response to AII; Rat B, 75 min): 23% | % Inhibition of Blood Pressure Elevation (pressor response to AII; Rat B, 90 min): 21% | % Inhibition of Blood Pressure Elevation (pressor response to AII; Rat B, 120 min): 23% | % Inhibition of Blood Pressure Elevation (pressor response to AII; Rat B, 150 min): 23% | % Inhibition of Blood Pressure Elevation (pressor response to AII; Rat B, 180 min): 13% | % Inhibition of Blood Pressure Elevation (pressor response to AII; Rat C, 0 min): 0% | % Inhibition of Blood Pressure Elevation (pressor response to AII; Rat C, 30 min): 16% | % Inhibition of Blood Pressure Elevation (pressor response to AII; Rat C, 45 min): 6% | % Inhibition of Blood Pressure Elevation (pressor response to AII; Rat C, 60 min): 29% | % Inhibition of Blood Pressure Elevation (pressor response to AII; Rat C, 75 min): 2% | % Inhibition of Blood Pressure Elevation (pressor response to AII; Rat C, 90 min): 10% | % Inhibition of Blood Pressure Elevation (pressor response to AII; Rat C, 120 min): 16% | % Inhibition of Blood Pressure Elevation (pressor response to AII; Rat C, 150 min): -4% | % Inhibition of Blood Pressure Elevation (pressor response to AII; Rat C, 180 min): 10% | % Inhibition of Blood Pressure Elevation (pressor response to AII; Rats A-C Mean ± SE, 30 min): 14 ± 2% | % Inhibition of Blood Pressure Elevation (pressor response to AII; Rats A-C Mean ± SE, 45 min): 14 ± 4% | % Inhibition of Blood Pressure Elevation (pressor response to AII; Rats A-C Mean ± SE, 60 min): 31 ± 4% | % Inhibition of Blood Pressure Elevation (pressor response to AII; Rats A-C Mean ± SE, 75 min): 20 ± 9% | % Inhibition of Blood Pressure Elevation (pressor response to AII; Rats A-C Mean ± SE, 90 min): 23 ± 8% | % Inhibition of Blood Pressure Elevation (pressor response to AII; Rats A-C Mean ± SE, 120 min): 26 ± 6% | % Inhibition of Blood Pressure Elevation (pressor response to AII; Rats A-C Mean ± SE, 150 min): 20 ± 13% | % Inhibition of Blood Pressure Elevation (pressor response to AII; Rats A-C Mean ± SE, 180 min): 19 ± 7% | Kb (rabbit aortic rings; first of two rabbits, read-out: pA2 (first value) (converted)): 13.2 nM | Kb (rabbit aortic rings; second of two rabbits, read-out: pA2 (converted)): 9.77 nM
